US20100137676A1, “N-ACETYLCYSTEINE AMIDE (NAC AMIDE) FOR TREATMENT OF OXIDATIVE STRESS ASSOCIATED WITH INFERTILITY” (priority 2005, published 2010)

Tests used:
porcine oocytes = assay: Glutathione assay: intracellular GSH concentration per oocyte after supplementation of maturation medium; format: cell-based; conditions: supplementation 1.0 mM; for GSH concentration/oocyte: porcine oocytes, control 3.19
Experimental: (§1) This Example describes an evaluation of the effects of NAC amide, glutathione (GSH) and N-acetylcysteine (NAC) supplementation to incubation and culture media during porcine oocyte maturation, fertilization and embryo culture on various measures of fertilization and embryo development, as well as on the intracellular concentration of GSH.
(§2) Experimental Design: Three trials were conducted, each trial utilizing 30 porcine oocytes per treatment group (90 total oocytes per each of four treatment groups). Oocytes were purchased from Trans Ova Genetics, Sioux City, Iowa. Treatment groups were: 1) Control (no supplemental anti-oxidants); 2) GSH supplementation (1.0 mM); 3) NAC supplementation (1.0 mM); and 4) NAC amide supplementation (1.0 mM).
(§3) In vitro Maturation: Oocytes were maturated for 20 to 24 hours in tissue culture medium 199 with Earle's salts, 0.01 U/mL LH and FSH, 10 ng/mL EGF, antibiotics, and 10% fetal calf serum under mineral oil (Specialty Media, Phillipsburg, N.J.) at 39° C. in an atmosphere of 5% CO2 and then for an additional 20 to 24 h without hormones.
Glutathione Assay: Oocytes were washed in PBS, frozen, and ruptured using a blunt glass rod in phosphoric acid. The assay was performed as described previously (B. D. Whitaker and J. W. Knight, 2004, Theriogenology, 62:311-322) and the amount of GSH was determined using a standard curve of concentration GSH versus rate of change in absorbency.

[1] = test system: porcine oocytes / embryos; assay: Embryo development to 2-cell and blastocyst stage after IVF in supplemented media (Example 1); format: cell-based; conditions: for % embryos reaching 2-cell stage of development / % embryos reaching blastocyst stage of development (of those in observed in the 2-cell stage): supplementation 1.0 mM, IVF; for % embryos reaching 2-cell stage of development: control 19; for % embryos reaching blastocyst stage of development (of those in observed in the 2-cell stage): culture to blastocyst stage, control 40
Experimental: as §1, §2, §3
(§4) In vitro Fertilization (IVF) of Oocytes: Cumulus cells by were removed by agitation with 0.1% hyaluronidase, washed and placed in Tris-fertilization medium (113.1 mM NaCl, 3 mM KCl, 7.5 mM CaCl2.2H2O, 20 mM Tris, 11 mM D (+)-glucose, 5 mM sodium pyruvate, 1 mg/mL BSA, 2 mM caffeine) with mineral oil overlay and freeze-thawed spermatozoa were added at a concentration of 2000 spermatozoa/oocyte. The gametes were incubated at 39° C. in an atmosphere of 5% CO2 for approximately 6 hours.
In vitro Culture: Putative zygotes were washed and incubated in NCSU-23 culture medium (108.73 mM NaCl, 4.78 mM KCl, 1.19 mM KH2PO4, 1.19 mM MgSO4.7H2O, 5.5 mM glucose, 1 mM glutamine, 7 mM taurine 5 mM hypotaurine, 25.07 mM NaHCO3, 1.7 mM CaCl2.2H2O, 75 μg/mL Penicillin G, 50 μg/mL Streptomycin, 4 mg/mL BSA, pH 7.4) with mineral oil overlay at 39° C. in an atmosphere of 5% CO2 for 48 hours. After 48 hours, embryos that had undergone the first cell division were placed in fresh NCSU 23 culture media in the same manner as described above until blastocyst formation, 144 hours post-IVF.
The remaining zygotes were cultured through the blastocyst stage of development ([…]) in their respective media and their development and viability progress was recorded (Table 2). NAC amide supplementation of the culture medium enhanced the development of zygotes to the 2-cell stage and further aided the subsequent final percentage of those embryos reaching the 2-cell stage that continued development onto the blastocyst stage (the endpoint of in vitro analysis).

porcine putative zygotes = assay: In vitro fertilization parameter evaluation by nuclear staining of putative zygotes; format: cell-based; conditions: 12 hours after IVF; n=4 zygotes per group; preliminary, subjective
Experimental: as §2, §4
In vitro Fertilization Parameter Evaluation: Fertilization was analyzed 12 hours after IVF by fixing the oocytes on a microscope slide with 25% (v:v) acetic acid in ethanol at room temperature for 48 hours. Oocytes were stained with 1% orcein in 45% (v:v) acetic acid and examined using a phase-contrast microscope at 400× magnification.
Fertilization parameters were subjectively examined by nuclear staining samples (n=4) of putative zygotes from each of the treatment groups 12 hours after IVF was complete (Illustration 1, * indicates pronucleus). In the preliminary analysis, only a small number of zygotes were subjected to staining, since the intent of the studies described herein was to assess the number of zygotes that continued development to the 2-cell and blastocyst stages. This analysis was simply to see if any obvious anomalies were occurring.

[2] = cell-free system; cited from earlier work
[3] = test system: mammalian red blood cells (RBCs); conditions: cited from earlier work
[4] = test system: porcine oocytes / embryos; assay: Embryo development after intracytoplasmic sperm injection (ICSI) with NAC amide supplementation (Example 4); format: cell-based; conditions: of 24 oocytes
Text: (§5) This Example investigates the effects of NAC amide supplementation to culture media during porcine oocyte maturation, fertilization, and embryo culture on intracellular concentrations of GSH after oocyte maturation, IVF parameters, success of intracytoplasmic sperm injection (ICSI), and embryo development following ICSI and pronuclear microinjection.
(§6) All chemicals, unless otherwise specified, were obtained from Sigma Chemical Company (St. Louis, Mo.) and were of embryo grade quality. Dr. Glenn Goldstein and associates provided the NAC amide. Oocytes (BoMed, Madison, Wis.) were maturated for 20 to 24 h in tissue culture medium 199 supplemented with Earle's salts, 0.01 U/mL LH and FSH, antibiotics, and 10% fetal calf serum under mineral oil (Specialty Media, Phillipsburg, N.J.) at 39° C. in an atmosphere of 5% CO2 and then for an additional 20 to 24 h without hormones.
Cumulus cells were removed by agitation with 0.1% hyaluronidase, washed and placed in microdrops of NCSU-23 culture medium (108.73 mM NaCl, 4.78 mM KCl, 1.19 mM KH2PO4, 1.19 mM MgSO4.7H2O, 5.5 mM glucose, 1 mM glutamine, 7 mM taurine 5 mM hypotaurine, 25.07 mM NaHCO3, 1.7 mM CaCl2.2H2O, 75 μg/mL Penicillin G, 50 μg/mL Streptomycin, 4 mg/mL BSA, pH 7.4) with mineral oil overlay at 39° C. after centrifugation at 15000×g. Frozen-thawed sperm were then placed in an adjacent microdrop. […]

[5] = test system: porcine oocytes / embryos; assay: Embryo development after IVF with NAC amide supplementation (Example 4); format: cell-based; conditions: of 70 oocytes
Text: as §5, §6
as §4, with “Cumulus” for “In vitro Fertilization (IVF) of Oocytes: Cumulus”, “cells” for “cells by”, “D(+)-glucose,” for “D (+)-glucose,”, “frozen-thawed” for “freeze-thawed”, “h. […]” for “hours.”

| Compound | intracellular GSH concentration, statistical comparison with control (porcine oocytes; P<0.05) | GSH concentration/oocyte (porcine oocytes) | % embryos reaching 2-cell stage of development [1] | % embryos reaching blastocyst stage of development (of those in observed in the 2-cell stage) [1] | changes on fertilization events (nuclear staining) (porcine putative zygotes) | greater increase in intracellular GSH compared with supplementation of GSH per se (porcine oocytes) | greater intracellular GSH concentration compared with NAC supplementation (porcine oocytes) | increase in intracellular GSH concentration compared with control (porcine oocytes) | intracellular GSH concentration, statistical comparison with GSH (porcine oocytes; P<0.05) | % of embryos developing to the 2-cell and blastocyst stages, statistical comparison ([1]; 2-cell P<0.05, blastocyst P<0.10) | reaction with oxidized glutathione (GSSG) [2] | hemoglobin oxidation ([3]; RBCs) | tert.-butylhydroxyperoxide (BuOOH)-induced intracellular oxidation ([3]; RBCs) | restoration of thiol-depleted RBCs ([3]; externally applied, compared with NAC) | # of Embryos reaching blastocyst stage of development ([4]; control 2 of 25) | # of Embryos reaching 2-cell stage of development ([4]; control 5 of 25) | # of Embryos reaching blastocyst stage of development ([5]; control 6 of 67) | # of Embryos reaching 2-cell stage of development ([5]; control 10 of 67) |
| --- | --- | --- | --- | --- | --- | --- | --- | --- | --- | --- | --- | --- | --- | --- | --- | --- | --- | --- |
| CC(=O)N[C@@H](CS)C(=O)O [NAC, N-acetylcysteine] | significantly (P<0.05) higher than control | 6.00 pmol | 30% | 55% | did not have any noticeable changes | – | – | – | – | – | – | – | – | – | – | – | – | – |
| N[C@@H](CCC(=O)N[C@@H](CS)C(=O)NCC(=O)O)C(=O)O [GSH, glutathione] | – | 4.18 pmol | 25% | 40% | did not have any noticeable changes | – | – | – | – | – | – | – | – | – | – | – | – | – |
| N-acetylcysteine amide [NAC amide] | significantly (P<0.05) higher than control | 7.03 pmol | 45% | 85% | did not have any noticeable changes | 40% | 15% | 2.2 fold | significantly (P<0.05) higher than GSH | significantly greater % of embryos | react with oxidized glutathione (GSSG) to generate reduced glutathione (GSH) | protected hemoglobin from oxidation | inhibit | significantly greater than that found using NAC | 5 | 12 | 12 | 22 |
